Source: US10294202B2, “Pyrrolidinones as herbicides” (FMC Corporation, priority 2013, dated 2019)

What was measured:
arrowleaf sida = assay: Test E preemergence herbicide test; assay type: in vivo, Sida rhombifolia; parameters: key: 0 = no effect, 100 = complete control
From the text: (§1) Seeds of plant species selected from corn (Zea mays), soybean (Glycine max), velvetleaf (Abutilon theophrasti), lambsquarters (Chenopodium album), wild poinsettia (Euphorbia heterophylla), pigweed, palmer (palmer pigweed, Amaranthus palmeri), waterhemp (common waterhemp, Amaranthus rudis), surinam grass (Brachiaria decumbens), crabgrass, large (large crabgrass, Digitaria sanguinalis), crabgrass, Brazil (Brazilian crabgrass, Digitaria horizontalis), panicum, fall (fall panicum, Panicum dichotomiflorum), foxtail, giant (giant foxtail, Setaria faberii), foxtail, green (green foxtail, Setaria viridis), goosegrass (Eleusine indica), johnsongrass (Sorghum halepense), ragweed (common ragweed, Ambrosia elatior), barnyardgrass (Echinochloa crus-galli), sandbur (southern sandbur, Cenchrus echinatus), arrowleaf […] rhombifolia), ryegrass, Italian (Italian ryegrass, Lolium multiflorum), dayflower, VA (Virginia dayflower, Commelina virginica), field bindweed (Convolvulus arvensis), morningglory (Ipomoea coccinea), nightshade (eastern black nightshade, Solanum ptycanthum), kochia (Kochia scoparia), nutsedge, yellow (yellow nutsedge, Cyperus esculentus), cocklebur (common cocklebur, Xanthium strumarium), smartweed (ladysthumb smartweed, Polygonum Persicaria) and beggarticks (hairy beggarticks, Bidens pilosa), were planted into a silt loam soil and treated preemergence with test chemicals formulated in a non-phytotoxic solvent mixture which included a surfactant. Treated plants and controls were maintained in a greenhouse for 21 days, after which time all species were compared to controls and visually evaluated. Plant response ratings, summarized in Table E, are based on a scale of 0 to 100 where 0 is no effect and 100 is complete control. A dash (-) response means no test result.

waterhemp = assay: Test E preemergence herbicide test; assay type: in vivo, Amaranthus rudis; parameters: key: 0 = no effect, 100 = complete control
From the text: as §1

bromegrass, downy = assay: Test D pre-/postemergence herbicide test; assay type: in vivo, Bromus tectorum; conditions: for Plant response rating, Bromegrass, Downy: scale 0 to 100 (0 no effect, 100 complete control); for Plant response rating: Bromegrass, Downy, scale 0 to 100
From the text: Seeds of plant species selected from bluegrass (annual bluegrass, Poa annua), blackgrass (Alopecurus myosuroides), canarygrass (littleseed canarygrass, Phalaris minor), chickweed (common chickweed, Stellaria media), galium (catchweed bedstraw, Galium aparine), bromegrass, downy (downy bromegrass, Bromus tectorum), field poppy (Papaver rhoeas), field violet (Viola arvensis), foxtail, green (green foxtail, Setaria viridis), deadnettle (henbit deadnettle, Lamium amplexicaule), ryegrass, Italian (Italian ryegrass, Lolium multiflorum), kochia (Kochia scoparia), lambsquarters (Chenopodium album), oilseed rape (Brassica napus), pigweed (Amaranthus retroflexus), chamomile (scentless chamomile, Matricaria inodora), Russian thistle (Salsola kali), speedwell (bird's-eye speedwell, Veronica persica), barley, spring (spring barley, Hordeum vulgare), wheat, spring (spring wheat, Triticum aestivum), buckwheat, wild (wild buckwheat, Polygonum convolvulus), mustard, wild (wild mustard, Sinapis arvensis), oat, wild (wild oat, Avena fatua), radish, wild (wild radish, Raphanus raphanistrum), […]), barley, winter (winter barley, Hordeum vulgare), and wheat, winter (winter wheat, Triticum aestivum) were planted into a silt loam soil and treated preemergence with test chemicals formulated in a non-phytotoxic solvent mixture which included a surfactant. At the same time, these species were planted in pots containing Redi-Earth® planting medium (Scotts Company, 14111 Scottslawn Road, Marysville, Ohio 43041) comprising spaghnum peat moss, vermiculite, wetting agent and starter nutrients and treated with postemergence applications of the test chemicals formulated in the same manner. Plants ranged in height from 2 to 18 cm (1- to 4-leaf stage). Treated plants and controls were maintained in a controlled growth environment for 7 to 21 days after which time all species were compared to controls and visually evaluated. Plant response ratings, summarized in Table D, are based on a scale of 0 to 100 where 0 is no effect and 100 is complete control. A dash (-) response means no test result.

wheat, winter = assay: Test D pre-/postemergence herbicide test; assay type: in vivo, Triticum aestivum; conditions: for Plant response rating, Wheat, Winter: Preemergence, scale 0 to 100 (0 no effect, 100 complete control); for Plant response rating: Postemergence, Wheat, Winter, scale 0 to 100
In short: (§2)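 Compound applied in non-phytotoxic solvent with surfactant, either preemergence (silt loam soil) or postemergence (peat moss/vermiculite medium, 2–18 cm plants). Evaluated visually after 7 to 21 days; 0 = no effect, 100 = complete control.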

wheat, spring = assay: Test D pre-/postemergence herbicide test; assay type: in vivo, Triticum aestivum; conditions: for Plant response rating, Wheat, Spring: Preemergence, scale 0 to 100 (0 no effect, 100 complete control); for Plant response rating: Postemergence, Wheat, Spring, scale 0 to 100
In short: as §2

galium = assay: Test D pre-/postemergence herbicide test; assay type: in vivo, Galium aparine; conditions: for Plant response rating, Galium: scale 0 to 100 (0 no effect, 100 complete control); for Plant response rating: Galium, scale 0 to 100
In short: as §2

chamomile = assay: Test D pre-/postemergence herbicide test; assay type: in vivo, Matricaria inodora; conditions: for Plant response rating: Chamomile, scale 0 to 100; for Plant response rating, Chamomile: scale 0 to 100 (0 no effect, 100 complete control)
In short: as §2

SMILES: O=C1NCC(c2ccc(Cl)c(Cl)c2)C1C(=O)Nc1ccccc1F (racemic) [Compound 14]
- Plant response rating, Arrowleaf Sida (arrowleaf sida; 16 g ai/ha): 0
- Plant response rating, Arrowleaf Sida (arrowleaf sida; 31 g ai/ha): 0
- Plant response rating, Arrowleaf Sida (arrowleaf sida; 62 g ai/ha): 0
- Plant response rating, Arrowleaf Sida (arrowleaf sida; 125 g ai/ha): 0
- Plant response rating, Arrowleaf Sida (arrowleaf sida; 250 g ai/ha): 0
- Plant response rating, Waterhemp (waterhemp; 16 g ai/ha): 0
- Plant response rating, Waterhemp (waterhemp; 31 g ai/ha): 0
- Plant response rating, Waterhemp (waterhemp; 62 g ai/ha): 0
- Plant response rating, Waterhemp (waterhemp; 125 g ai/ha): 0
- Plant response rating, Waterhemp (waterhemp; 250 g ai/ha): 0

SMILES: O=C1NCC(c2ccc(OC(F)F)cc2)C1C(=O)Nc1cccc(F)c1F (racemic) [Compound 350]
- Plant response rating, Arrowleaf Sida (arrowleaf sida; 31 g ai/ha): 0
- Plant response rating, Arrowleaf Sida (arrowleaf sida; 62 g ai/ha): 0
- Plant response rating, Arrowleaf Sida (arrowleaf sida; 125 g ai/ha): 20
- Plant response rating, Arrowleaf Sida (arrowleaf sida; 250 g ai/ha): 50
- Plant response rating, Waterhemp (waterhemp; 31 g ai/ha): 0
- Plant response rating, Waterhemp (waterhemp; 62 g ai/ha): 0
- Plant response rating, Waterhemp (waterhemp; 125 g ai/ha): 0
- Plant response rating, Waterhemp (waterhemp; 250 g ai/ha): 35

SMILES: O=C1NC[C@H](c2cccc(C(F)(F)F)c2)[C@H]1C(=O)Nc1ccccc1F [Compound 204, (3R,4S)—N-(2-fluorophenyl)-2-oxo-4-[3-(trifluoromethyl)phenyl]-3-pyrrolidinecarboxamide]
- Plant response rating, Arrowleaf Sida (arrowleaf sida; 31 g ai/ha): 0
- Plant response rating, Arrowleaf Sida (arrowleaf sida; 62 g ai/ha): 0
- Plant response rating, Arrowleaf Sida (arrowleaf sida; 125 g ai/ha): 0
- Plant response rating, Arrowleaf Sida (arrowleaf sida; 250 g ai/ha): 0
- Plant response rating, Bromegrass, Downy (bromegrass, downy; Preemergence, 62 g ai/ha): 20
- Plant response rating, Bromegrass, Downy (bromegrass, downy; Preemergence, 125 g ai/ha): 35
- Plant response rating, Bromegrass, Downy (bromegrass, downy; Preemergence, 31 g ai/ha): 0
- Plant response rating (bromegrass, downy; Preemergence, 250 g ai/ha): 45
- Plant response rating, Wheat, Winter (wheat, winter; 62 g ai/ha): 15
- Plant response rating, Wheat, Winter (wheat, winter; 125 g ai/ha): 15
- Plant response rating, Wheat, Winter (wheat, winter; 31 g ai/ha): 5
- Plant response rating, Wheat, Winter (wheat, winter; 250 g ai/ha): 20
- Plant response rating, Wheat, Spring (wheat, spring; 62 g ai/ha): 0
- Plant response rating, Wheat, Spring (wheat, spring; 125 g ai/ha): 25
- Plant response rating, Wheat, Spring (wheat, spring; 31 g ai/ha): 0
- Plant response rating, Wheat, Spring (wheat, spring; 250 g ai/ha): 30
- Plant response rating, Waterhemp (waterhemp; 31 g ai/ha): 0
- Plant response rating, Waterhemp (waterhemp; 62 g ai/ha): 0
- Plant response rating, Waterhemp (waterhemp; 125 g ai/ha): 0
- Plant response rating, Waterhemp (waterhemp; 250 g ai/ha): 0
- Plant response rating, Galium (galium; Preemergence, 62 g ai/ha): 10
- Plant response rating, Galium (galium; Preemergence, 125 g ai/ha): 10
- Plant response rating, Galium (galium; Preemergence, 31 g ai/ha): 0
- Plant response rating (galium; Preemergence, 250 g ai/ha): 25

SMILES: O=C1NC[C@H](c2cccc(C(F)(F)F)c2)[C@H]1C(=O)Nc1cccc(F)c1F [Compound 206]
- Plant response rating, Arrowleaf Sida (arrowleaf sida; 31 g ai/ha): 0
- Plant response rating, Arrowleaf Sida (arrowleaf sida; 62 g ai/ha): 0
- Plant response rating, Arrowleaf Sida (arrowleaf sida; 125 g ai/ha): 10
- Plant response rating, Arrowleaf Sida (arrowleaf sida; 250 g ai/ha): 50
- Plant response rating, Bromegrass, Downy (bromegrass, downy; Preemergence, 62 g ai/ha): 25
- Plant response rating, Bromegrass, Downy (bromegrass, downy; Preemergence, 125 g ai/ha): 55
- Plant response rating, Bromegrass, Downy (bromegrass, downy; Preemergence, 31 g ai/ha): 10
- Plant response rating (bromegrass, downy; Preemergence, 250 g ai/ha): 70
- Plant response rating, Wheat, Winter (wheat, winter; 62 g ai/ha): 0
- Plant response rating, Wheat, Winter (wheat, winter; 125 g ai/ha): 25
- Plant response rating, Wheat, Winter (wheat, winter; 31 g ai/ha): 0
- Plant response rating, Wheat, Winter (wheat, winter; 250 g ai/ha): 30
- Plant response rating, Wheat, Spring (wheat, spring; 62 g ai/ha): 25
- Plant response rating, Wheat, Spring (wheat, spring; 125 g ai/ha): 45
- Plant response rating, Wheat, Spring (wheat, spring; 31 g ai/ha): 10
- Plant response rating, Wheat, Spring (wheat, spring; 250 g ai/ha): 65
- Plant response rating, Waterhemp (waterhemp; 31 g ai/ha): 50
- Plant response rating, Waterhemp (waterhemp; 125 g ai/ha): 50
- Plant response rating, Waterhemp (waterhemp; 250 g ai/ha): 50
- Plant response rating, Galium (galium; Preemergence, 62 g ai/ha): 40
- Plant response rating, Galium (galium; Preemergence, 125 g ai/ha): 50
- Plant response rating, Galium (galium; Preemergence, 31 g ai/ha): 10
- Plant response rating (galium; Preemergence, 250 g ai/ha): 80

SMILES: O=C1NCC(c2ccc(C(F)(F)F)cc2)C1C(=O)Nc1ccccc1F (stereo not drawn) [Compound 231]
- Plant response rating (chamomile; Postemergence, 31 g ai/ha): 20
- Plant response rating (chamomile; Postemergence, 62 g ai/ha): 25
- Plant response rating (chamomile; Postemergence, 125 g ai/ha): 50
- Plant response rating (chamomile; Postemergence, 250 g ai/ha): 50
- Plant response rating, Chamomile (chamomile; Preemergence, 62 g ai/ha): 75
- Plant response rating, Chamomile (chamomile; Preemergence, 125 g ai/ha): 80
- Plant response rating, Chamomile (chamomile; Preemergence, 31 g ai/ha): 75
- Plant response rating (chamomile; Preemergence, 250 g ai/ha): 100
- Plant response rating (bromegrass, downy; Postemergence, 31 g ai/ha): 15
- Plant response rating (bromegrass, downy; Postemergence, 62 g ai/ha): 20
- Plant response rating (bromegrass, downy; Postemergence, 125 g ai/ha): 25
- Plant response rating (bromegrass, downy; Postemergence, 250 g ai/ha): 25
- Plant response rating, Bromegrass, Downy (bromegrass, downy; Preemergence, 62 g ai/ha): 0
- Plant response rating, Bromegrass, Downy (bromegrass, downy; Preemergence, 125 g ai/ha): 0
- Plant response rating, Bromegrass, Downy (bromegrass, downy; Preemergence, 31 g ai/ha): 0
- Plant response rating (bromegrass, downy; Preemergence, 250 g ai/ha): 15
- Plant response rating (wheat, winter; 31 g ai/ha): 0
- Plant response rating (wheat, winter; 62 g ai/ha): 0
- Plant response rating (wheat, winter; 125 g ai/ha): 0
- Plant response rating (wheat, winter; 250 g ai/ha): 0
- Plant response rating, Wheat, Winter (wheat, winter; 62 g ai/ha): 10
- Plant response rating, Wheat, Winter (wheat, winter; 125 g ai/ha): 15
- Plant response rating, Wheat, Winter (wheat, winter; 31 g ai/ha): 5
- Plant response rating, Wheat, Winter (wheat, winter; 250 g ai/ha): 25
- Plant response rating (wheat, spring; 31 g ai/ha): 0
- Plant response rating (wheat, spring; 62 g ai/ha): 0
- Plant response rating (wheat, spring; 125 g ai/ha): 0
- Plant response rating (wheat, spring; 250 g ai/ha): 0
- Plant response rating, Wheat, Spring (wheat, spring; 62 g ai/ha): 5
- Plant response rating, Wheat, Spring (wheat, spring; 125 g ai/ha): 0
- Plant response rating, Wheat, Spring (wheat, spring; 31 g ai/ha): 0
- Plant response rating, Wheat, Spring (wheat, spring; 250 g ai/ha): 20
- Plant response rating (galium; Postemergence, 31 g ai/ha): 40
- Plant response rating (galium; Postemergence, 62 g ai/ha): 45
- Plant response rating (galium; Postemergence, 125 g ai/ha): 55
- Plant response rating (galium; Postemergence, 250 g ai/ha): 55
- Plant response rating, Galium (galium; Preemergence, 62 g ai/ha): 40
- Plant response rating, Galium (galium; Preemergence, 125 g ai/ha): 35
- Plant response rating, Galium (galium; Preemergence, 31 g ai/ha): 20
- Plant response rating (galium; Preemergence, 250 g ai/ha): 40
